In patent US20120177697A1, “Excipients In Drug Delivery Vehicles” (Durect Corporation, priority 2003, published 2012):
Structures can show the parent of a compound that is named as a salt.

Key:
[1] = cited from earlier work
[2] = Saturation concentration in de-ionized water; assay type: physicochemical; conditions: DI water
Procedure: Bupivacaine hydrochloride (Sigma-Aldrich Corporation, St. Louis, Mo.) was dissolved in de-ionized (DI) water at a concentration of 40 mg/ml (saturation). A calculated amount of sodium hydroxide (1 N solution) was added to the solution and the pH of the final mixtures was adjusted to 10 to precipitate the BP base. The precipitated product was filtered, and further washed with DI water for at least three times. The precipitated product was dried at approximately 40° C. in vacuum for 24 hours.

Row | concentration in de-ionized water at saturation [2] | SMILES | reported solubility in water [1]
1 |  | CC(=O)OCC(COC(C)=O)OC(C)=O [triacetin] | 7.17 grams in 100 ml of water
2 | 40000 µg/mL | CCCCN1CCCCC1C(=O)Nc1c(C)cccc1C (centres unmarked) [Bupivacaine hydrochloride] | 
